According to the supplement of paper PMC10307832:

Legend:
Assay in all cases: relative viability (nuclei count vs DMSO), 5 days (fraction); higher = more cells survive
VX-11e + Lapatinib = compound: CC1=CN=C(N=C1C2=CNC(=C2)C(=O)N[C@H](CO)C3=CC(=CC=C3)Cl)NC4=C(C=C(C=C4)F)Cl [VX-11e] + CS(=O)(=O)CCNCc1ccc(-c2ccc3ncnc(Nc4ccc(OCc5cccc(F)c5)c(Cl)c4)c3c2)o1 [Lapatinib] (partner 2 µM)
Summary of the method: (§1)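 The day after seeding in 1536-well plates, lung cancer cell lines were treated by pin tool with a single drug, or with a fixed anchor-drug dose together with five library-drug doses (not always all listed) in √10 steps. After 5 days, a combined fix-and-stain solution (final 0.05% Triton X-100, 1% formaldehyde, 1 ug/ml Hoechst) was added. Nuclei counted on 4× images gave relative viability as treated counts over vehicle counts, reported as the median of duplicate plates.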

VX-11e + Decitabine = compound: CC1=CN=C(N=C1C2=CNC(=C2)C(=O)N[C@H](CO)C3=CC(=CC=C3)Cl)NC4=C(C=C(C=C4)F)Cl [VX-11e] + Nc1ncn([C@H]2C[C@H](O)[C@@H](CO)O2)c(=O)n1 [Decitabine] (partner 2 µM)
Summary of the method: as §1

VX-11e + Olaparib = compound: CC1=CN=C(N=C1C2=CNC(=C2)C(=O)N[C@H](CO)C3=CC(=CC=C3)Cl)NC4=C(C=C(C=C4)F)Cl [VX-11e] + O=C(c1cc(Cc2n[nH]c(=O)c3ccccc23)ccc1F)N1CCN(C(=O)C2CC2)CC1 [Olaparib] (partner 8 µM)
Summary of the method: as §1

VX-11e + Luminespib = compound: CC1=CN=C(N=C1C2=CNC(=C2)C(=O)N[C@H](CO)C3=CC(=CC=C3)Cl)NC4=C(C=C(C=C4)F)Cl [VX-11e] + CCNC(=O)c1noc(-c2cc(C(C)C)c(O)cc2O)c1-c1ccc(CN2CCOCC2)cc1 [Luminespib] (partner 0.01 µM)
Summary of the method: as §1

Cell Line	relative viability (VX-11e + Lapatinib; first compound 0.04 µM)	relative viability (VX-11e + Lapatinib; first compound 0.1265 µM)	relative viability (VX-11e + Lapatinib; first compound 0.4 µM)	relative viability (VX-11e + Lapatinib; first compound 1.265 µM)	relative viability (VX-11e + Lapatinib; first compound 4 µM)	relative viability (VX-11e + Decitabine; first compound 0.04 µM)	relative viability (VX-11e + Decitabine; first compound 0.1265 µM)	relative viability (VX-11e + Decitabine; first compound 0.4 µM)	relative viability (VX-11e + Decitabine; first compound 1.265 µM)	relative viability (VX-11e + Decitabine; first compound 4 µM)	relative viability (VX-11e + Olaparib; first compound 0.04 µM)	relative viability (VX-11e + Olaparib; first compound 0.1265 µM)	relative viability (VX-11e + Olaparib; first compound 0.4 µM)	relative viability (VX-11e + Olaparib; first compound 1.265 µM)	relative viability (VX-11e + Olaparib; first compound 4 µM)	relative viability (VX-11e + Luminespib; first compound 0.04 µM)	relative viability (VX-11e + Luminespib; first compound 0.1265 µM)	relative viability (VX-11e + Luminespib; first compound 0.4 µM)	relative viability (VX-11e + Luminespib; first compound 1.265 µM)	relative viability (VX-11e + Luminespib; first compound 4 µM)
RERF-LC-KJ	0.833	0.776	0.879	0.848	0.649	0.707	0.703	0.592	0.807	0.62	1.11	0.884	0.945	0.921	0.979	1.32	1.06	1.05	1.21	1.11
NCI-H2228	1.23	1.17	0.158	0.691	0.309	–	–	–	–	–	0.681	0.631	0.362	0.417	0.21	0.145	0.138	–	0.148	0.12
NCI-H1944	0.748	0.733	0.621	0.647	0.586	0.461	0.509	0.412	0.41	0.374	0.405	0.417	0.376	0.345	0.328	0.711	0.708	–	0.571	0.422
NCI-H1648	–	–	–	–	–	–	0.584	0.491	0.654	0.42	–	0.658	0.765	0.855	0.52	–	–	–	–	–
NCI-H647	0.863	0.902	0.546	0.476	0.353	0.378	0.355	0.349	0.537	0.449	0.627	0.591	0.617	0.422	0.303	0.248	0.329	0.118	0.24	0.111
A549	0.898	0.903	0.832	0.211	0.135	–	0.264	0.0929	0.249	0.202	0.237	0.246	0.0406	0.184	0.0866	–	–	–	–	–
LC-2-ad	0.929	0.792	0.881	0.399	0.547	0.798	0.776	0.703	0.872	0.654	0.713	0.669	0.746	0.673	0.687	1.18	0.947	0.633	0.883	0.815
EMC-BAC-2	0.736	0.807	0.945	0.837	0.732	1.02	0.958	0.653	1	0.588	0.529	0.492	0.468	0.711	0.636	1.21	1.19	1.2	1.19	0.924
EBC-1	0.207	0.236	0.19	0.235	0.177	–	–	–	–	–	0.749	0.72	0.707	0.66	0.192	–	–	–	–	–
SW 900	–	–	–	–	–	0.443	0.491	–	0.529	0.455	0.879	0.888	–	0.836	0.581	0.211	0.186	0.174	0.175	0.173
